Measured values as given in ChEMBL document CHEMBL1201862, “PubChem BioAssay data set” (2004).
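How tested: cells in 96-well plates exposed to compound for 48 hours at five concentrations. GI50 is the concentration that inhibits growth by half.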 Calls of active or inactive are those of the source. Cut-off read from the data, not from the text of the source: active = GI50 up to about 1.1 µM and inactive = higher.

Legend:
Test in all cases: inhibition of tumour cell growth, NCI panel, 48 h
M14 = test system: M14
PC-3 = test system: PC-3
UACC-62 = test system: UACC-62
M19-MEL = test system: M19-MEL
SN12C = test system: SN12C
T47D = test system: T47D
NCI-H460 = test system: NCI-H460
NCI-H226 = test system: NCI-H226
Hs-578T = test system: Hs-578T
UACC-257 = test system: UACC-257
RXF 393 = test system: RXF 393
KM12 = test system: KM12
RPMI-8226 = test system: RPMI-8226
XF498 = test system: XF498
HCT-116 = test system: HCT-116
U-251 = test system: U-251
TK-10 = test system: TK-10
786-0 = test system: 786-0
HT-29 = test system: HT-29
SNB-75 = test system: SNB-75
CCRF-CEM = test system: CCRF-CEM
ACHN = test system: ACHN
MOLT-4 = test system: MOLT-4
HCC 2998 = test system: HCC 2998
HOP-62 = test system: HOP-62
NCI/ADR-RES = test system: NCI/ADR-RES
HL-60 = test system: HL-60
SW-620 = test system: SW-620
COLO 205 = test system: COLO 205
SK-OV-3 = test system: SK-OV-3
SF-539 = test system: SF-539
SF-268 = test system: SF-268
DLD-1 = test system: DLD-1
SNB-19 = test system: SNB-19
OVCAR-3 = test system: OVCAR-3
MDA-MB-435 = test system: MDA-MB-435
EKVX = test system: EKVX
Malme-3M = test system: Malme-3M
A498 = test system: A498
IGROV-1 = test system: IGROV-1
CAKI-1 = test system: CAKI-1
HOP-18 = test system: HOP-18
LOX IMVI = test system: LOX IMVI
DMS-114 = test system: DMS-114
SK-MEL-5 = test system: SK-MEL-5
SK-MEL-2 = test system: SK-MEL-2
KM-20L2 = test system: KM-20L2
BT-549 = test system: BT-549
SK-MEL-28 = test system: SK-MEL-28
SNB-78 = test system: SNB-78
K562 = test system: K562
DU-145 = test system: DU-145
MDA-MB-231 = test system: MDA-MB-231
NCI-H522 = test system: NCI-H522
SR = test system: SR
HCT-15 = test system: HCT-15
HOP-92 = test system: HOP-92
NCI-H23 = test system: NCI-H23
OVCAR-4 = test system: OVCAR-4
OVCAR-8 = test system: OVCAR-8
SF-295 = test system: SF-295
MCF7 = test system: MCF7
DMS-273 = test system: DMS-273
A549 = test system: A549
UO-31 = test system: UO-31
OVCAR-5 = test system: OVCAR-5
MDA-N = test system: MDA-N
LXFL 529 = test system: LXFL 529

SMILES: Cc1c2cnccc2c(C)c2c1c1ccccc1n2CCOC(=O)c1ccccc1
- GI50 (M14): 26.7 µM (inactive)
- GI50 (PC-3): 28.6 µM (inactive)
- GI50 (UACC-62): 11.9 µM (inactive)
- GI50 (M19-MEL): 13.9 µM (inactive)
- GI50 (SN12C): 2.52 µM (inactive)
- GI50 (T47D): 30 µM (inactive)
- GI50 (NCI-H460): 3.45 µM (inactive)
- GI50 (NCI-H226): 12.6 µM (inactive)
- GI50 (Hs-578T): 30.1 µM (inactive)
- GI50 (UACC-257): 12.4 µM (inactive)
- GI50 (RXF 393): 9.75 µM (inactive)
- GI50 (KM12): 12.5 µM (inactive)
- GI50 (RPMI-8226): 8.57 µM (inactive)
- GI50 (XF498): 3.27 µM (inactive)
- GI50 (HCT-116): 5.41 µM (inactive)
- GI50 (U-251): 15.7 µM (inactive)
- GI50 (TK-10): 11.2 µM (inactive)
- GI50 (786-0): 11.5 µM (inactive)
- GI50 (HT-29): 16.4 µM (inactive)
- GI50 (SNB-75): 22.9 µM (inactive)
- GI50 (CCRF-CEM): 7.52 µM (inactive)
- GI50 (ACHN): 4.74 µM (inactive)
- GI50 (MOLT-4): 5.25 µM (inactive)
- GI50 (HCC 2998): 10.7 µM (inactive)
- GI50 (HOP-62): 13.2 µM (inactive)
- GI50 (NCI/ADR-RES): 8.49 µM (inactive)
- GI50 (HL-60): 5.85 µM (inactive)
- GI50 (SW-620): 6.31 µM (inactive)
- GI50 (COLO 205): 7.8 µM (inactive)
- GI50 (SK-OV-3): 5.33 µM (inactive)
- GI50 (SF-539): 6.21 µM (inactive)
- GI50 (SF-268): 11.4 µM (inactive)
- GI50 (DLD-1): 7.69 µM (inactive)
- GI50 (SNB-19): 10.7 µM (inactive)
- GI50 (OVCAR-3): 12.2 µM (inactive)
- GI50 (MDA-MB-435): 14.4 µM (inactive)
- GI50 (EKVX): 13.3 µM (inactive)
- GI50 (Malme-3M): 11.5 µM (inactive)
- GI50 (A498): 1.75 µM (inactive)
- GI50 (IGROV-1): 9.44 µM (inactive)
- GI50 (CAKI-1): 6.24 µM (inactive)
- GI50 (HOP-18): 20.7 µM (inactive)
- GI50 (LOX IMVI): 8.38 µM (inactive)
- GI50 (DMS-114): 9.51 µM (inactive)
- GI50 (SK-MEL-5): 16.2 µM (inactive)
- GI50 (SK-MEL-2): 12.5 µM (inactive)
- GI50 (KM-20L2): 6.44 µM (inactive)
- GI50 (BT-549): 33 µM (inactive)
- GI50 (SK-MEL-28): 15.2 µM (inactive)
- GI50 (SNB-78): 12.2 µM (inactive)
- GI50 (K562): 9.71 µM (inactive)
- GI50 (DU-145): 25.6 µM (inactive)
- GI50 (MDA-MB-231): 38.9 µM (inactive)
- GI50 (NCI-H522): 11.4 µM (inactive)
- GI50 (SR): 17.5 µM (inactive)
- GI50 (HCT-15): 11.9 µM
- GI50 (HOP-92): 27.7 µM (inactive)
- GI50 (NCI-H23): 15.7 µM (inactive)
- GI50 (OVCAR-4): 16.5 µM (inactive)
- GI50 (OVCAR-8): 6.55 µM (inactive)
- GI50 (SF-295): 11 µM (inactive)
- GI50 (MCF7): 9.64 µM (inactive)
- GI50 (DMS-273): 4.86 µM (inactive)
- GI50 (A549): 10.8 µM (inactive)
- GI50 (UO-31): 3.1 µM (inactive)
- GI50 (OVCAR-5): 14.4 µM (inactive)
- GI50 (MDA-N): 17.6 µM (inactive)

SMILES: Cc1c(C(=O)CC(=O)C(=O)Nc2ccccc2C(F)(F)F)[n+]([O-])c2ccccc2[n+]1[O-]
- GI50 (M14): 15.2 µM (inactive)
- GI50 (UACC-62): 18 µM (inactive)
- GI50 (SN12C): 22.2 µM (inactive)
- GI50 (NCI-H460): 21.3 µM (inactive)
- GI50 (NCI-H226): > 100 µM (inactive)
- GI50 (UACC-257): 18.4 µM (inactive)
- GI50 (RXF 393): 19.2 µM (inactive)
- GI50 (KM12): 19.5 µM (inactive)
- GI50 (RPMI-8226): 4.69 µM (inactive)
- GI50 (XF498): 9.44 µM (inactive)
- GI50 (HCT-116): 14.7 µM (inactive)
- GI50 (U-251): 19.6 µM (inactive)
- GI50 (TK-10): 46.8 µM (inactive)
- GI50 (786-0): 33.6 µM (inactive)
- GI50 (HT-29): 18.5 µM (inactive)
- GI50 (CCRF-CEM): 18.6 µM (inactive)
- GI50 (ACHN): 62.2 µM (inactive)
- GI50 (HCC 2998): 13.4 µM (inactive)
- GI50 (HOP-62): 44 µM (inactive)
- GI50 (HL-60): 28.2 µM (inactive)
- GI50 (SW-620): 16.2 µM (inactive)
- GI50 (COLO 205): 12.3 µM (inactive)
- GI50 (SK-OV-3): 25.5 µM (inactive)
- GI50 (SF-539): 23.2 µM (inactive)
- GI50 (SF-268): 21.2 µM (inactive)
- GI50 (SNB-19): 32.1 µM (inactive)
- GI50 (OVCAR-3): 2.63 µM (inactive)
- GI50 (EKVX): 19.5 µM (inactive)
- GI50 (Malme-3M): 20.6 µM (inactive)
- GI50 (A498): > 100 µM (inactive)
- GI50 (IGROV-1): 18 µM (inactive)
- GI50 (CAKI-1): 26.7 µM (inactive)
- GI50 (HOP-18): 2.2 µM (inactive)
- GI50 (LOX IMVI): 18.7 µM (inactive)
- GI50 (DMS-114): 11.5 µM (inactive)
- GI50 (SK-MEL-5): 16.3 µM (inactive)
- GI50 (SK-MEL-2): 19.8 µM (inactive)
- GI50 (KM-20L2): 33.7 µM (inactive)
- GI50 (SK-MEL-28): 27.4 µM (inactive)
- GI50 (SNB-78): 47.2 µM (inactive)
- GI50 (K562): 22 µM (inactive)
- GI50 (NCI-H522): 16.4 µM (inactive)
- GI50 (SR): 2.09 µM (inactive)
- GI50 (HCT-15): 16.8 µM
- GI50 (HOP-92): 16.2 µM (inactive)
- GI50 (NCI-H23): 17.4 µM (inactive)
- GI50 (OVCAR-4): 18.1 µM (inactive)
- GI50 (OVCAR-8): 18.2 µM (inactive)
- GI50 (SF-295): 31.6 µM (inactive)
- GI50 (DMS-273): 25.8 µM (inactive)
- GI50 (A549): 24.2 µM (inactive)
- GI50 (UO-31): 35.1 µM (inactive)
- GI50 (OVCAR-5): 26.8 µM (inactive)
- GI50 (LXFL 529): 20.8 µM (inactive)
